From US20140344996A1, “METHODS AND MEANS TO PRODUCE ABIOTIC STRESS TOLERANT PLANTS” (VIB VZW, priority 2011, published 2014)

Legend:
Format in all cases: in vivo, Arabidopsis thaliana
[1] = tested on: Arabidopsis wild-type plants; test: Growth of the third leaf under mild osmotic stress (mannitol); settings: wild-type line, transfer at 9DAS to medium with 25 mM Mannitol
Procedure: It was opted to study growing plants upon exposure to mild stress, not threatening plant survival but only reducing plant growth by an average of 50%. For loss-of-function analysis, the double erf5/erf6 T-DNA insertion mutant and a wild-type line were grown on control medium until 9DAS and then transferred to growth medium containing 25 mM of the osmoticum Mannitol. Subsequently, upon transfer, growth of the third leaf was measured.
Seedlings were grown in vitro on half-strength Murashige and Skoog medium (Murashige and Skoog 1962) containing 1% sucrose and 6.5 g/L agar at 21° C. under a 16-hour day (110 μmol m^−2 s^−1) and 8-hour night regimen. The growth medium was overlaid with nylon mesh (Prosep, Zaventem, Belgium) of 20 μm pore size to facilitate transfer to induction medium. For expression analysis and growth experiments, 64 resp. 32 seeds were equally distributed on a 15-cm diameter petri dish. […]
Growth analysis was performed on the third true leaf harvested at different time points after transfer to Dex. […] Photographs of leaves and drawings were used to measure leaf area and cell size, respectively, using ImageJ v1.37o (NIH; on the World Wide Web at //rsb.info.nih.gov/ij/), and from these cell numbers were calculated by dividing leaf area with cell area.

Arabidopsis seedlings [2] = test: Gene expression in the third leaf after transfer to Dex medium; settings: 5 μM Dexamethasone in ½ MS medium, transfer at 9DAS
Procedure: At 9DAS, when the third leaf is fully proliferating, the mesh with seedlings was transferred to plates containing ½ MS medium with 5 μM Dexamethasone (Dex). For expression analysis and growth experiments, all seedlings were transferred to Dex, including the control lines, to account for the possible effects of Dex on growth or gene expression. […] Here, the non-treated plants will serve as a control for the Dex-induced plants of the same line. […] Leaf 3 was harvested from plants at 1, 2, 4 and 24 hours after transfer. Samples were obtained from three independent experiments and from multiple plates within the experiment. Whole seedlings were harvested rapidly in an excess of RNAlater solution (Ambion) and, after overnight storage at 4° C., dissected under a binocular microscope on a cooling plate with precision microscissors. Dissected leaves were transferred to a new tube, frozen in liquid nitrogen, and ground with a Retsch machine and 3-mm metal balls. RNA was extracted with TriZol (Invitrogen) and further purified with the RNEASY® Mini Kit (Qiagen). DNA digestion was done on-column with Rnase-free DNase I (Roche). […] Melting curves were analyzed to check primer specificity. […] Ct refers to the number of cycles at which SYBR Green fluorescence reaches an arbitrary value during the exponential phase of the cDNA amplification.

Arabidopsis seedlings [3] = test: Leaf growth of Arabidopsis seedlings in vitro after transfer to Dex medium; settings: 5 μM Dexamethasone in ½ MS medium, transfer at 9DAS
Procedure: Seedlings were grown in vitro on half-strength Murashige and Skoog medium (Murashige and Skoog 1962) containing 1% sucrose and 6.5 g/L agar at 21° C. under a 16-hour day (110 μmol m^−2 s^−1) and 8-hour night regimen. The growth medium was overlaid with nylon mesh (Prosep, Zaventem, Belgium) of 20 μm pore size to facilitate transfer to induction medium. For expression analysis and growth experiments, 64 resp. 32 seeds were equally distributed on a 15-cm diameter petri dish. […] At 9DAS, when the third leaf is fully proliferating, the mesh with seedlings was transferred to plates containing ½ MS medium with 5 μM Dexamethasone (Dex). For expression analysis and growth experiments, all seedlings were transferred to Dex, including the control lines, to account for the possible effects of Dex on growth or gene expression. […] Here, the non-treated plants will serve as a control for the Dex-induced plants of the same line. […] Growth analysis was performed on the third true leaf harvested at different time points after transfer to Dex. After clearing with 70% ethanol, leaves were mounted in lactic acid on microscopic slides. […] Photographs of leaves and drawings were used to measure leaf area and cell size, respectively, using ImageJ v1.37o (NIH; on the World Wide Web at //rsb.info.nih.gov/ij/), and from these cell numbers were calculated by dividing leaf area with cell area.

SMILES	growth of the third leaf [1]	effect on gene expression (Arabidopsis seedlings [2])	effect on growth (Arabidopsis seedlings [3])
OC[C@@H](O)[C@@H](O)[C@H](O)[C@H](O)CO [Mannitol]	expected growth reduction		
C[C@@H]1C[C@H]2[C@@H]3CCC4=CC(=O)C=C[C@]4(C)[C@@]3(F)[C@@H](O)C[C@]2(C)[C@@]1(O)C(=O)CO [Dex, Dexamethasone]		no effect	no effect
